From the supplement of paper PMC10307832

Columns and labels:
Assay in all cases: relative viability (nuclei count vs DMSO), 5 days (fraction); higher = more cells survive
[1] = compound: CC1=CC(=NN1)NC2=CC(=NC(=N2)/C=C/C3=CC=CC=C3)N4CCN(CC4)C + Cc1nc(NC(=O)N2CCC[C@H]2C(N)=O)sc1-c1ccnc(C(C)(C)C(F)(F)F)c1 [Alpelisib] (partner 2 µM)
Summary of the method: (§1)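 Relative viability divides the nuclei count in treated wells by that in vehicle wells. Lung cancer cell lines were seeded in 1536-well plates, dosed by pin tool the next day, and fixed and stained after 5 days in one step with final 0.05% Triton X-100, 1% formaldehyde and 1 ug/ml Hoechst. Dosing was a single drug or a fixed anchor-drug dose plus five library-drug doses (not always all listed) in √10 steps, and values are medians of duplicate plates imaged at 4×.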

Bortezomib + Decitabine = compound: CC(C)C[C@H](NC(=O)[C@H](Cc1ccccc1)NC(=O)c1cnccn1)B(O)O [Bortezomib] + Nc1ncn([C@H]2C[C@H](O)[C@@H](CO)O2)c(=O)n1 [Decitabine] (partner 2 µM)
Summary of the method: as §1

Bortezomib + Vorinostat = compound: CC(C)C[C@H](NC(=O)[C@H](Cc1ccccc1)NC(=O)c1cnccn1)B(O)O [Bortezomib] + O=C(CCCCCCC(=O)Nc1ccccc1)NO [Vorinostat] (partner 1 µM)
Summary of the method: as §1

Obatoclax + Bortezomib = compound: COC1=CC(c2cc3ccccc3[nH]2)=N/C1=C\c1[nH]c(C)cc1C [Obatoclax] + CC(C)C[C@H](NC(=O)[C@H](Cc1ccccc1)NC(=O)c1cnccn1)B(O)O [Bortezomib] (partner 0.002 µM)
Summary of the method: as §1

Cell Line	relative viability ([1]; first compound 0.08 µM)	relative viability ([1]; first compound 0.253 µM)	relative viability ([1]; first compound 0.8 µM)	relative viability ([1]; first compound 2.53 µM)	relative viability ([1]; first compound 8 µM)	relative viability (Bortezomib + Decitabine; first compound 0.0002 µM)	relative viability (Bortezomib + Decitabine; first compound 0.000632 µM)	relative viability (Bortezomib + Decitabine; first compound 0.002 µM)	relative viability (Bortezomib + Decitabine; first compound 0.006325 µM)	relative viability (Bortezomib + Decitabine; first compound 0.02 µM)	relative viability (Bortezomib + Vorinostat; first compound 0.0002 µM)	relative viability (Bortezomib + Vorinostat; first compound 0.000632 µM)	relative viability (Bortezomib + Vorinostat; first compound 0.002 µM)	relative viability (Bortezomib + Vorinostat; first compound 0.006325 µM)	relative viability (Bortezomib + Vorinostat; first compound 0.02 µM)	relative viability (Obatoclax + Bortezomib; first compound 0.01 µM)	relative viability (Obatoclax + Bortezomib; first compound 0.03162 µM)	relative viability (Obatoclax + Bortezomib; first compound 0.1 µM)	relative viability (Obatoclax + Bortezomib; first compound 0.3162 µM)	relative viability (Obatoclax + Bortezomib; first compound 1 µM)
201T	1.04	1.08	1.01	0.931	0.793	0.846	0.859	0.894	0.819	0.274	0.964	0.936	0.993	0.916	0.328	1.09	1.01	1.13	1.1	1.1
A549	0.685	0.684	0.398	0.0413	0.0242	0.294	0.205	0.339	0.201	0.248	–	–	–	–	–	–	–	–	–	–
A-427	1.08	1.15	1.07	0.716	0.133	0.531	0.536	0.579	0.247	0.18	0.845	0.878	0.833	0.185	0.153	1.02	0.966	1.01	1.01	0.944
ABC-1	1.01	1.09	1.02	0.855	0.22	1.09	1	0.389	0.284	0.287	0.689	0.415	0.288	0.29	0.312	0.323	0.134	0.23	0.323	0.212
BEN	1.06	1.1	0.986	0.865	0.186	0.716	0.801	0.678	0.522	0.337	0.559	0.586	0.558	0.509	0.317	0.826	0.735	0.356	0.734	0.838
CAL-12T	1.04	1.21	1.24	0.339	0.121	–	–	–	–	–	0.781	0.922	0.691	0.281	0.0995	0.969	1.02	0.915	0.697	0.567
COR-L23	0.751	0.722	0.57	0.178	0.0573	0.439	0.417	0.396	0.0939	0.0825	0.474	0.446	0.192	0.0554	0.0587	0.962	1	0.961	0.461	0.187
COR-L 105	0.946	1.08	0.967	0.605	0.186	0.695	0.614	0.526	0.33	0.278	0.846	0.306	0.824	0.276	0.271	0.989	0.782	0.777	0.432	0.335
Calu-6	1.01	0.973	0.661	0.134	0.117	–	–	–	–	–	–	–	–	–	–	1.03	1.02	0.979	0.955	0.191
ChaGo-K-1	–	–	–	–	–	0.49	0.444	0.561	0.444	0.161	0.709	0.753	0.827	0.441	0.162	1.11	0.949	–	0.968	1.23
EBC-1	0.83	0.87	0.788	0.183	0.128	–	–	–	–	–	–	–	–	–	–	0.637	0.602	0.481	0.341	0.232
EKVX	0.856	1.09	0.941	0.675	0.167	0.36	0.393	0.431	0.25	0.0809	0.68	0.805	0.65	0.518	0.198	1.05	1.01	1.03	1.01	1.13
EMC-BAC-2	0.748	0.717	0.662	0.521	0.154	1.07	0.987	0.828	0.559	0.196	0.402	0.467	0.409	0.155	0.143	1.15	1.04	1.03	1.1	1.16
EPLC-272H	0.901	1.07	0.79	0.513	0.244	0.378	0.348	0.321	0.0848	0.065	0.333	0.4	0.0774	0.0603	0.0567	0.833	0.88	1.05	0.864	0.894
H3255	0.753	0.735	0.772	0.593	0.182	0.587	0.583	0.316	0.192	0.204	0.811	0.827	0.748	0.253	0.244	0.764	0.784	0.725	0.762	0.793
HARA	0.858	0.85	0.974	0.121	0.0791	0.459	0.569	0.415	0.125	0.124	0.512	0.672	0.175	0.0466	0.0668	1.1	0.759	1.17	1.02	0.724
HCC-15	0.856	1.03	0.828	0.494	0.0833	0.626	0.619	0.598	0.111	0.114	0.864	0.892	0.729	0.107	0.094	0.973	1.02	0.926	0.957	0.739
HCC-44	0.784	0.879	0.675	0.281	0.0774	0.965	0.965	0.961	0.953	0.258	1.07	1.07	1.1	0.557	0.328	0.861	0.836	0.822	0.769	0.386
HCC-78	0.315	0.371	0.295	0.275	0.117	0.703	0.744	0.644	0.615	0.291	0.453	0.447	0.263	0.281	0.276	0.539	0.402	0.718	0.456	0.743
HCC-366	0.376	0.646	0.363	0.0741	0.0115	0.305	0.327	0.39	0.201	0.0383	0.352	0.377	0.33	0.113	0.026	1.06	1	1.08	0.88	1.04

Cell Line	relative viability ([1]; first compound 0.08 µM)	relative viability ([1]; first compound 0.253 µM)	relative viability ([1]; first compound 0.8 µM)	relative viability ([1]; first compound 2.53 µM)	relative viability ([1]; first compound 8 µM)	relative viability (Bortezomib + Decitabine; first compound 0.0002 µM)	relative viability (Bortezomib + Decitabine; first compound 0.000632 µM)	relative viability (Bortezomib + Decitabine; first compound 0.002 µM)	relative viability (Bortezomib + Decitabine; first compound 0.006325 µM)	relative viability (Bortezomib + Decitabine; first compound 0.02 µM)	relative viability (Bortezomib + Vorinostat; first compound 0.0002 µM)	relative viability (Bortezomib + Vorinostat; first compound 0.000632 µM)	relative viability (Bortezomib + Vorinostat; first compound 0.002 µM)	relative viability (Bortezomib + Vorinostat; first compound 0.006325 µM)	relative viability (Bortezomib + Vorinostat; first compound 0.02 µM)	relative viability (Obatoclax + Bortezomib; first compound 0.01 µM)	relative viability (Obatoclax + Bortezomib; first compound 0.03162 µM)	relative viability (Obatoclax + Bortezomib; first compound 0.1 µM)	relative viability (Obatoclax + Bortezomib; first compound 0.3162 µM)	relative viability (Obatoclax + Bortezomib; first compound 1 µM)
HCC-827	0.934	0.984	1.02	0.874	0.475	0.35	0.376	0.346	0.327	0.296	0.802	0.883	0.799	0.814	0.182	0.928	0.861	0.821	0.855	1.04
HOP-62	0.937	1.09	0.931	0.942	0.164	0.232	0.204	0.223	0.106	0.0681	0.589	0.654	0.6	0.131	0.0601	0.909	0.787	0.639	0.739	0.719
IA-LM	0.737	0.799	0.782	0.461	0.221	–	–	–	–	–	0.955	0.788	0.806	0.674	0.008	0.838	0.723	0.727	0.0591	0.0714
LK-2	1.1	0.668	0.966	0.605	0.211	0.274	0.384	0.281	0.227	0.15	0.401	0.416	0.323	0.173	0.195	–	–	–	–	–
NCI-H358	0.934	0.821	0.539	0.142	0.153	0.204	0.207	0.191	0.0949	0.0871	0.699	0.71	0.405	0.0638	0.0768	–	–	–	–	–
NCI-H522	–	–	–	–	–	0.777	0.621	0.575	0.432	0.386	0.824	0.818	0.976	0.446	0.334	–	–	–	–	–
NCI-H1299	1.06	1.08	1.04	1.1	0.605	–	–	–	–	–	–	–	–	–	–	0.969	1.05	0.982	1	0.93
NCI-H1395	1	1.07	1.03	0.602	0.289	0.774	0.702	0.431	0.287	0.297	0.762	0.547	0.515	0.301	0.306	–	–	–	–	–
NCI-H1563	0.896	0.893	0.782	0.555	0.392	–	–	–	–	–	–	–	–	–	–	0.905	0.883	0.835	0.714	0.833
NCI-H1648	–	–	–	–	–	0.516	0.444	0.366	0.453	0.292	0.295	0.395	0.268	0.264	0.241	–	–	–	–	–
NCI-H1650	–	–	–	–	–	0.488	0.484	0.182	0.137	0.128	0.575	0.58	0.151	0.139	0.155	0.208	0.198	0.196	0.19	0.197
NCI-H1703	0.302	0.32	0.205	0.128	0.0994	–	–	–	–	–	–	–	–	–	–	0.456	0.38	0.304	0.227	0.22
NCI-H1792	0.648	0.8	0.726	0.475	0.213	0.473	0.581	0.664	0.286	0.0625	–	–	–	–	–	0.992	0.926	–	0.917	0.975
NCI-H1793	0.679	0.758	0.654	0.398	0.124	0.492	–	0.507	0.334	0.146	0.689	–	0.682	0.381	0.125	–	–	–	–	–
NCI-H1944	0.816	0.995	0.759	0.568	0.304	0.414	0.429	0.461	0.402	0.248	0.563	0.546	0.633	0.333	0.148	–	–	–	–	–
NCI-H2170	0.765	0.861	0.668	0.494	0.147	0.462	0.465	0.444	0.377	0.126	0.746	0.722	0.972	0.173	0.121	–	–	–	–	–
NCI-H2228	0.632	0.714	0.437	0.112	0.0706	–	–	–	–	–	0.694	0.73	0.101	0.124	0.108	0.96	1.01	1.25	0.626	0.367
NCI-H2342	–	–	–	–	–	0.818	0.795	0.694	0.725	0.436	1.01	0.789	0.838	0.748	0.627	–	–	–	–	–
SK-MES-1	0.882	0.853	0.958	0.623	0.131	0.444	0.411	0.379	0.194	0.156	1.08	1.1	1	0.164	0.158	–	–	–	–	–
SW 900	–	–	–	–	–	0.347	0.423	0.227	0.206	0.284	0.482	0.54	0.163	0.169	0.173	–	–	–	–	–
